Data from patent publication US20250288581A1, “BALIPODECT FOR TREATING OR PREVENTING AUTISM SPECTRUM DISORDERS” (TAKEDA PHARMACEUTICAL COMPANY LIMITED, priority 2018, published 2025).
Where “and” joins values, the source holds several entries; their conditions need not be identical. Identical values can stand only once. Like-named read-outs stand apart in the source and are kept apart here.

Key:
[1] = test system: Male FMR1 knockout mice; assay: Open Field Test in FMR1 mouse model of FXS; type: in vivo; details: Compound A 5 mg/kg oral for two weeks; FIGS. 7 and 8
Protocol: Male FMR1 knockout (“KO”) mice and wild-type (“WT”) mice were bred at PsychoGenics. These mice were handled and chosen according to Example 5. However, the open field test started at 10 weeks of age, following 2 weeks of dosing. Three groups of mice were tested as follows: • Group (1): WT—Vehicle Group: a vehicle was orally administered for two weeks at a dose volume of 10 mL/kg. On testing days, the vehicle was administered 150 minutes prior to testing. • Group (2): FMR1 KO—Group: a vehicle was orally administered for two weeks at a dose volume of 10 mL/kg.
Open field chambers made of Plexiglas square chambers (27.3×27.3×20.3 cm; Med Associates Inc., St Albans, VT) surrounded by infrared photo beams (16×16×16) were used to measure horizontal and vertical activity of tested mice. The mice were brought into the chamber for at least 1 hour acclimation to the experimental room conditions prior to testing. Following 150 minutes of pre-treatment, the mice were placed in the center of the chamber for a 60-minute test period. After the 60-minutes, the mice were placed back into their home cage. During the test period, locomotor activity was measured in 5 minute intervals and total distance traveled was measured.

[2] = test system: Male FMR1 knockout mice; assay: Fear Conditioning test in FMR1 mouse model of FXS; type: in vivo
Protocol: After completion of the open field test described in Example 6, a Fear Conditioning test was conducted on the mice of Groups (1)-(3) in a fear conditioning system manufactured by Coulbourn Instruments (PA, USA).
On day 1, mice were placed in a conditioning chamber to habituate to the context for 2 minutes […]. A tone was presented for 20 seconds. 30 seconds after the CS ended, a foot shock (1 s, 0.5 mA) was presented (US). The pairing of the CS and US was repeated a total of 3 times, with an interval of 60 seconds between pairings. Mice remained in the conditioning chamber for another 60 seconds, and then returned to their home cage.
In the morning of day 2, mice were tested for contextual memory. Mice were placed in chambers for 5 minutes. In the afternoon of day 2, mice were tested for cued memory. Mice were placed in the conditioning chamber to habituate to the context for 2 minutes (Pre-Cue). Then, the CS was presented for a total of three times for 20 seconds, with 60 second inter-trial intervals. Freezing behavior, defined as the complete lack of movement, was captured automatically with a video system and Freeze View software (Coulbourn Instruments, PA, USA).

[3] = Plasma and brain exposure analysis after oral administration; type: in vivo; details: CDKL5-/Y mice; for concentration at 24 h: male, CDKL5-/Y, mouse, 5 mg/kg
Excerpt: (§1) Neurobehavioral assays were run when the mice were 8-10 weeks old. Tissues were collected at the end of the study to determine plasma and CNS PK.
In Table 1, “LLOQ” is the “lower limit of quantification”, and it is used to indicate the sensitivity of the assays. The numbers in plasma and brain columns are in ng/mL for plasma and ng/g for brain.

[4] = Fraction unbound in plasma (fu, plasma); type: in vitro ADME; details: mouse
Excerpt: An in vitro profile of the PDE10A inhibitor was created for the CDKL5-/Y mice.

[5] = test system: Male FMR1 knockout mice; assay: Suppression of audiogenic seizures in FMR1 mouse model of Fragile X Syndrome; type: in vivo; details: 125 dB tone, vs vehicle Group (1); for Latency to seizure: 5-minute test, Compound A 5 mg/kg oral 150 min prior, MPEP 30 mg/kg i.p. 30 min prior, FIG. 5; for Percent seizure (seizure rates): Compound A 5 mg/kg oral, MPEP 30 mg/kg i.p., p<0.05, FIG. 6
Protocol: Male FMR1 knockout mice were bred at PsychoGenics. The mice were housed in OPTI-Mice ventilated cages for the duration of the study. All mice were acclimated to the environment, examined, handled, and weighed prior to initiation of the study to assure adequate health and suitability and to minimize non-specific stress associated with manipulation. During the course of the study, 12/12 light/dark cycles were maintained. The room temperature was maintained between 20 and 23° C. with a relative humidity maintained around 50%. Chow and water were provided ad libitum for the duration of the study. Each mouse was randomly assigned across treatment groups. The testing was performed during the animals' light cycle phase at 3 weeks of age.
Prior to audiogenic seizures, on test day, three groups of mice were pre-treated as follows: • Group (1): a vehicle orally administered at a dose volume of 10 mL/kg, 150 minutes prior to testing. • Group (2): 6-Methyl-2-(phenylethynyl) pyridine HCI (“MPEP”) (Sigma Aldrich; 30 mg/kg) was dissolved in sterile injectable saline and was administered by intraperitoneal injection at a dose volume of 10 mL/kg, 30 minutes prior to testing.
After the pre-treatments, the mice of Groups (1)-(3) were individually placed in a Plexiglas chamber and allowed to explore for 15 seconds. Then, they were exposed to a 125 dB tone. The observer was blinded to the pre-treatment conditions during the test. The mice were scored by the observer based on their response, latency, and seizure intensity during a 5-minute test as follows: • 0: no response • 1. wild running and jumping • 2: clonic seizures • 3: clonic-tonic seizures • 4: tonic seizures • 5: respiratory arrest
The following endpoints were reported. […] Latency to seizure (max 300 sec. if no seizure) • 2. Percent seizure • 3. Seizure score

[6] = test system: CDKL5 male hemizygous (-/Y) mice; assay: Hindpaw clasping (amplexus) test in CDKL5 knock-out mice model; type: in vivo; details: Compound A 5 mg/kg once per day oral gavage; vs CDKL5-/Y vehicle Group (2); FIG. 1
Protocol: A hind paw clasping test was performed in accordance with the procedures outlined by Wang et al., PNAS, vol. 109, no. 52, pp. 21516-21521 (2012). The test is done in a CDKL5 knock-out mice model. Mice are suspended for a two-minute trial. If clasping occurs for two seconds, the mouse is positive for CDKL5 deficiency, which is a neurological impairment. Wang et al. noted the CDKL5 mutant mice, but no quantification was made. Tang et al., J. Neurosci. 37(31):7420-7437 (2017) reported 17/18 (94%) hemi male mice were positive for the clasp phenotype.
as §1
If clasping occurs for two seconds, the mouse is positive for CDKL5 deficiency.

[7] = test system: CDKL5 male hemizygous (-/Y) mice; assay: Open Field Test in CDKL5 knock-out mice model; type: in vivo; details: Compound A 5 mg/kg once per day oral; 15-minute trial; vs Groups (1) and (2); FIGS. 2A, 2B
Protocol: Spontaneous activity in an Open Field Arena is commonly used to assess general activity and ambulation. Mice were placed in the center of an arena for a fifteen-minute trial. The horizontal, vertical (rearing) and center activity are dependent variables.
FIG. 2A provides the results per minute from 0 to 15 minutes. FIG. 2B provides the results in five-minute intervals from 5 to 15 minutes.

Compound	hyperactivity (total distance traveled, 60-minute open field test) [1]	freezing response, contextual fear conditioning time course ([2]; 5 minute test, minute 2 and minute 5, Compound A 5 mg/kg oral, FIG. 10)	freezing behavior during Pre-Cue, cued fear conditioning ([2]; ANOVA between treatment groups, FIG. 11)	freezing response during Cue, cued fear conditioning ([2]; FMR1 mice, p=0.06, FIG. 11)	freezing response during Post-Cue, cued fear conditioning ([2]; FMR1 mice, FIG. 11)	Concentration in mouse plasma, individual sample ([3]; oral 5 mg/kg once per day, 14 days, 24 hours after the last dose, LLOQ 0.1)	Concentration in mouse brain, individual sample ([3]; oral 5 mg/kg once per day, 14 days, 24 hours after the last dose, LLOQ 0.5)	concentration at 24 h ([3]; brain, po, oral 5 mg/kg once per day, 14 days, 24 hours after the last dose, LLOQ 0.5, read-out: Concentration in mouse brain, individual sample) [ng/g]	concentration at 24 h ([3]; brain, po, oral 5 mg/kg once per day, 14 days, 24 hours after the last dose, N=6-7, read-out: Concentration in mouse brain, Mean) [ng/g]	concentration at 24 h ([3]; plasma, oral, 24 hours after the last administration, read-out: plasma concentration in all mice vs target IC50 in vivo) [ng/mL]	concentration at 24 h ([3]; plasma, po, oral 5 mg/kg once per day, 14 days, 24 hours after the last dose, N=6-7, read-out: Concentration in mouse plasma, Mean) [ng/mL]	fraction unbound [4]	Latency to seizure [5]	Percent seizure (seizure rates) [5]	percentage of no clasping [6]	total distance traveled in the open field [7]
COc1cn(-c2ccc(-n3cccn3)cc2F)nc(-c2ccnn2-c2ccccc2)c1=O [Compound A, 1-[2-fluoro-4-(1H-pyrazol-1-yl)phenyl]-5-methoxy-3-(1-phenyl-1H-pyrazol-5-yl)pyridazin-4(1H)-one]	suppresses hyperactivity	increased freezing response	no significant differences	strong trend to increasing freezing response	increased freezing response	4.3 ng/mL and 8.0 ng/mL and 4.4 ng/mL and 4.8 ng/mL and 2.8 ng/mL and 7.0 ng/mL and 3.1 ng/mL	48.2 ng/g and 38.9 ng/g and 64.5 ng/g and 44.9 ng/g and 43.8 ng/g	36.3	46.1	> 1.1	4.9	0.116	increased the latency to seizure	significantly decreased seizure rates	increased the percentage of no clasping	significantly suppressed the total distance traveled
Cc1cccc(C#Cc2ccccc2)n1.Cl [MPEP, 6-Methyl-2-(phenylethynyl) pyridine HCl, reference compound]													increased the latency to seizure	significantly decreased seizure rates		
